The structures appear in SMILES notation. Like-named read-outs stand apart in the source and are kept apart here. Where only a bound is given, the exact number is not on record here.

Assay [1] deals with human full-length recombinant HPK1 (Homo sapiens (Human), UniProt Q92918). As to the kind of experiment: HPK1 biochemical enzyme assay, microfluidic mobility shift assay (MSA). As to conditions: read-out: HPK1 Enzyme Assay_Ki. As to the method: HPK1 enzyme inhibition was measured using a microfluidic mobility shift assay (MSA). […] The reactions were conducted for 60 min at 37° C., stopped by the addition of 50 μL of 0.015 M EDTA, pH 8, and the extent of reactions (˜15-20% conversion with no inhibitor) was determined after electrophoretic separation of the fluorescently labeled peptide substrate and phosphorylated product on an LabChip EZ Reader II (PerkinElmer, Inc., Waltham, Mass.). […]

Assay [2] concerns phospho-SLP-76 (Ser376) in Jurkat cells. As to the kind of experiment: Phospho-SLP-76 (Ser376) Homogeneous Time Resolved Fluorescence (HTRF) assay in Jurkat cells. The assay is classed as cell-based. As to conditions: Homo sapiens, read-out: SLP76 Assay_IC50. As to the method:
Jurkat cells were seeded at 90,000 cells/well in 90 uL of RPMI1640 growth medium containing 10% FBS and incubated at 37° C. with 5% CO2 overnight. The following day, compounds were serially diluted from a 10 mM top dose for an 11-point 3 fold dilution curve in DMSO. Compounds were intermediately diluted 1:100 into growth media prior to diluting 1:10 on cells for final concentration 10 μM to 0.1 nM in 0.1% DMSO. After 30 minutes pre-treatment with compounds, the cells were stimulated using 200 μg/mL of F(ab)2 complexed anti-CD3 (clone UCTH1) for 15 min at 37° C. with 5% CO2. Stimulation was stopped with ice cold PBS and cells were harvested by centrifugation before lysis in Cisbio lysis buffer (Cisbio, Bedford, Mass.). Lysates were transferred to white, low-volume plates containing anti-phospho-SLP-76-Cryptate plus anti-phospho-SLP-76-d2 HTRF antibodies and incubated overnight at room temperature protected from light according to the manufacturer's protocol (Cisbio, Bedford, Mass.). HTRF was measured on a Perkin Elmer Envision and IC50 values were calculated by concentration-response curve fitting utilizing four-parameter nonlinear regression analyses.

The mark [3] stands for this setting: Phospho-SLP-76 (Ser376) HTRF, anti-CD3 stimulation.
Where [4] appears, read: mobility shift assay, 75 μM ATP, Morrison equation, tight-binding competitive inhibition.
Setting [5] is: 30 min pre-treatment, anti-CD3 stimulation 15 min, HTRF.

Chain of human full-length recombinant HPK1 (Q92918 whole entry): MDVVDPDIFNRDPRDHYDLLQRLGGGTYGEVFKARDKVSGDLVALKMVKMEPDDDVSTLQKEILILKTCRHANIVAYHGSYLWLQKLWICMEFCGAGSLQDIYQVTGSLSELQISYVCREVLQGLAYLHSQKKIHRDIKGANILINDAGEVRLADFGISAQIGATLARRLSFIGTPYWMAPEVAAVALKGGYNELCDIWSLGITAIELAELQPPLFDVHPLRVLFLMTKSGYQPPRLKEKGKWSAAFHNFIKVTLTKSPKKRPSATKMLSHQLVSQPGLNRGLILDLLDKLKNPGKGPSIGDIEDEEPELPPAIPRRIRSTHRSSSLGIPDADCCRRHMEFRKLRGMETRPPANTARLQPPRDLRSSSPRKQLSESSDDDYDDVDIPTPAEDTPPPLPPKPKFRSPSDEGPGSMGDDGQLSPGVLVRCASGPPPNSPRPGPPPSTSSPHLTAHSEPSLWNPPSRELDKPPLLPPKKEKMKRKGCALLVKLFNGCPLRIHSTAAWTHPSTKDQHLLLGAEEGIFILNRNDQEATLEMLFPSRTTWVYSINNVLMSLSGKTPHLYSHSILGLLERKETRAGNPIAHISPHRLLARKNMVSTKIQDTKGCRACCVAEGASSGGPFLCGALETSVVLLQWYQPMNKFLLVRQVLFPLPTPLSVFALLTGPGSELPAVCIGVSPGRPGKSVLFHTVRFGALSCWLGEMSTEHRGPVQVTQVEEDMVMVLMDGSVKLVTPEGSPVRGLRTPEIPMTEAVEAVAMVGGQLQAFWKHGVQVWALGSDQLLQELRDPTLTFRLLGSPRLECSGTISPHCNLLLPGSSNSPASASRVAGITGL

For `CC(C)N(C)c1cc2c(c(CN)n1)CN(c1cccc(-c3nncn3C(C)C)n1)C2=O` [Example 79, 4-(aminomethyl)-6-[methyl(propan-2-yl)amino]-2-{6-[4-(propan-2-yl)-4H-1,2,4-triazol-3-yl]pyridin-2-yl}-2,3-dihydro-1H-pyrrolo[3,4-c]pyridin-1-one], the Ki in assay [1] (HPK1 mobility shift assay) is below 0.05 nM. In addition, the IC50 in assay [2] (setting [3]) amounted to 48 nM.
Consider `CN(C)c1cc2c(c(CN)n1)CN(c1cccc(-c3nncn3CC3CC3)n1)C2=O` [Example 16, 4-(aminomethyl)-2-{6-[4-(cyclopropylmethyl)-4H-1,2,4-triazol-3-yl]pyridin-2-yl}-6-(dimethylamino)-2,3-dihydro-1H-pyrrolo[3,4-c]pyridin-1-one], for which the Ki in assay [1] (setting [4]) was determined as 0.56 nM. Moreover, in assay [2] (setting [5]), the IC50 was 358 nM.
In the case of `CCCn1cnnc1-c1cccc(N2Cc3c(cc(N4CCC4)nc3CNC)C2=O)n1` [Example 93, 6-(azetidin-1-yl)-4-[(methylamino)methyl]-2-[6-(4-propyl-4H-1,2,4-triazol-3-yl)pyridin-2-yl]-2,3-dihydro-1H-pyrrolo[3,4-c]pyridin-1-one], the Ki in assay [1] (HPK1 mobility shift assay) is 0.42 nM. Further, the IC50 in assay [2] (setting [3]) was found to be 713 nM.
The matching figures for `C[C@@H]1CC[C@@H](C)N1c1cc2c(c(CN)n1)CN(c1cccc(N3C(=O)OC[C@@H]3CF)n1)C2=O` [Example 124, 4-(aminomethyl)-6-[(2R,5R)-2,5-dimethylpyrrolidin-1-yl]-2-{6-[(4R)-4-(fluoromethyl)-2-oxo-1,3-oxazolidin-3-yl]pyridin-2-yl}-2,3-dihydro-1H-pyrrolo[3,4-c]pyridin-1-one]: 1.5 nM and 375 nM.
Take `CNCc1nc(N(C)C)cc2c1CN(c1cccc(-c3nncn3CC3CC3)n1)C2=O` [Example 21, 2-{6-[4-(cyclopropylmethyl)-4H-1,2,4-triazol-3-yl]pyridin-2-yl}-6-(dimethylamino)-4-[(methylamino)methyl]-2,3-dihydro-1H-pyrrolo[3,4-c]pyridin-1-one]: the Ki in assay [1] (setting [4]) amounted to 0.62 nM. In addition, the IC50 in assay [2] (setting [5]) was determined as 245 nM.
`CCN(c1cc2c(c(CN)n1)CN(c1cccc(-c3nncn3C(C)C)n1)C2=O)C(C)C` [Example 145, 4-(aminomethyl)-6-[ethyl(propan-2-yl)amino]-2-{6-[4-(propan-2-yl)-4H-1,2,4-triazol-3-yl]pyridin-2-yl}-2,3-dihydro-1H-pyrrolo[3,4-c]pyridin-1-one]: the Ki in assay [1] (HPK1 mobility shift assay) turned out to be 0.47 nM. The IC50 in assay [2] (setting [3]) stood at 61 nM.
On to `CNCc1nc(N2[C@H](C)CC[C@H]2C)cc2c1CN(c1cccc(-c3nncn3C(C)C)n1)C2=O` [Example 8, 6-[(2R,5R)-2,5-dimethylpyrrolidin-1-yl]-4-[(methylamino)methyl]-2-{6-[4-(propan-2-yl)-4H-1,2,4-triazol-3-yl]pyridin-2-yl}-2,3-dihydro-1H-pyrrolo[3,4-c]pyridin-1-one], for which, in assay [1] (setting [4]), the Ki is 0.25 nM. In assay [2] (setting [5]), the IC50 amounted to 89 nM.
The like results for `CCCn1cnnc1-c1cccc(N2Cc3c(cc(N(C)CC)nc3CNC)C2=O)n1` [Example 59, 6-[ethyl(methyl)amino]-4-[(methylamino)methyl]-2-[6-(4-propyl-4H-1,2,4-triazol-3-yl)pyridin-2-yl]-2,3-dihydro-1H-pyrrolo[3,4-c]pyridin-1-one] were, in that order, 0.19 nM and 59 nM.
As to `CCCn1cnnc1-c1cccc(N2Cc3c(cc(N4[C@H](C)CC[C@H]4C)nc3CNC)C2=O)n1` [Example 105, 6-[(2R,5R)-2,5-dimethylpyrrolidin-1-yl]-4-[(methylamino)methyl]-2-[6-(4-propyl-4H-1,2,4-triazol-3-yl)pyridin-2-yl]-2,3-dihydro-1H-pyrrolo[3,4-c]pyridin-1-one], the Ki in assay [1] (HPK1 mobility shift assay) worked out at 0.21 nM. Besides, the IC50 in assay [2] (setting [3]) came to 64 nM.
For the compound `CCCn1cnnc1-c1cccc(N2Cc3c(cc(N(CC)C(C)C)nc3CN)C2=O)n1` [Example 146, 4-(aminomethyl)-6-[ethyl(propan-2-yl)amino]-2-[6-(4-propyl-4H-1,2,4-triazol-3-yl)pyridin-2-yl]-2,3-dihydro-1H-pyrrolo[3,4-c]pyridin-1-one], the Ki in assay [1] (HPK1 mobility shift assay) turned out to be 0.91 nM. The IC50 in assay [2] (setting [3]) came out at 106 nM.
As to `CCCn1cnnc1-c1cccc(N2Cc3c(cc(N(CC)CC)nc3CNC)C2=O)n1` [Example 80, 6-(diethylamino)-4-[(methylamino)methyl]-2-[6-(4-propyl-4H-1,2,4-triazol-3-yl)pyridin-2-yl]-2,3-dihydro-1H-pyrrolo[3,4-c]pyridin-1-one], the Ki in assay [1] (HPK1 mobility shift assay) stood at 0.16 nM. Further, the IC50 in assay [2] (setting [3]) was 184 nM.
The like results for `CC[C@@H](C)n1cnnc1-c1cccc(N2Cc3c(cc(C4(C)CC4)nc3CNC)C2=O)n1` [Example 139, 2-(6-{4-[(2R)-butan-2-yl]-4H-1,2,4-triazol-3-yl}pyridin-2-yl)-4-[(methylamino)methyl]-6-(1-methylcyclopropyl)-2,3-dihydro-1H-pyrrolo[3,4-c]pyridin-1-one] were, in that order, 0.46 nM and 266 nM.
The matching figures for `CCCn1c(CC)nnc1-c1cccc(N2Cc3c(cc(N4CCC[C@H]4C)nc3CNC)C2=O)n1` [Example 175]: 0.94 nM and 185 nM.
`CNCc1nc(N2[C@H](C)C[C@@H]2C)cc2c1CN(c1cccc(-c3nncn3C(C)C)n1)C2=O` [Example 53, 6-[(2R,4S)-2,4-dimethylazetidin-1-yl]-4-[(methylamino)methyl]-2-{6-[4-(propan-2-yl)-4H-1,2,4-triazol-3-yl]pyridin-2-yl}-2,3-dihydro-1H-pyrrolo[3,4-c]pyridin-1-one]: the Ki in assay [1] (setting [4]) is 0.61 nM. For the same compound, the IC50 in assay [2] (setting [5]) was 489 nM.
The like results for `CNCc1nc(C(C)C)cc2c1CN(c1cccc(-c3nncn3C(C)C)n1)C2=O` [Example 30, 4-[(methylamino)methyl]-6-(propan-2-yl)-2-{6-[4-(propan-2-yl)-4H-1,2,4-triazol-3-yl]pyridin-2-yl}-2,3-dihydro-1H-pyrrolo[3,4-c]pyridin-1-one] were, in that order, 2.1 nM and 573 nM.
The like results for `C[C@@H]1CCCN1c1cc2c(c(CN)n1)CN(c1cccc(N3C(=O)OC[C@@H]3CF)n1)C2=O` [Example 68, 4-(aminomethyl)-2-{6-[(4R)-4-(fluoromethyl)-2-oxo-1,3-oxazolidin-3-yl]pyridin-2-yl}-6-[(2R)-2-methylpyrrolidin-1-yl]-2,3-dihydro-1H-pyrrolo[3,4-c]pyridin-1-one] were, in that order, below 0.07 nM and 50 nM.
Take `CC[C@@H](CC(F)(F)F)n1cnnc1-c1cccc(N2Cc3c(cc(N(C)C(C)C)nc3CNC)C2=O)n1` (single isomer, unassigned) [Example 72, 4-[(methylamino)methyl]-6-[methyl(propan-2-yl)amino]-2-(6-{4-[(3ξ)-1,1,1-trifluoropentan-3-yl]-4H-1,2,4-triazol-3-yl}pyridin-2-yl)-2,3-dihydro-1H-pyrrolo[3,4-c]pyridin-1-one]: the Ki in assay [1] (HPK1 mobility shift assay) was 4.48 nM. For the same compound, the IC50 in assay [2] (setting [3]) is 1020 nM.
Turning to `CC(C)c1[nH]ncc1-c1cccc(N2Cc3c(cc(N(C)C)nc3CN)C2=O)n1` [Example 11, 4-(aminomethyl)-6-(dimethylamino)-2-{6-[5-(propan-2-yl)-1H-pyrazol-4-yl]pyridin-2-yl}-2,3-dihydro-1H-pyrrolo[3,4-c]pyridin-1-one], the Ki in assay [1] (setting [4]) is 0.09 nM. Moreover, the IC50 in assay [2] (setting [5]) came to 159 nM.
On to `CCN(c1cc2c(c(CN)n1)CN(c1cccc(-c3nnc(C)n3CC)n1)C2=O)C(C)C` [Example 167], for which the Ki in assay [1] (HPK1 mobility shift assay) was determined as 0.7 nM. The IC50 in assay [2] (setting [3]) was found to be 391 nM.
